16 compounds from US20230339981A1, “KRAS G12D MODULATING COMPOUNDS” (priority 2022, published 2023) can be followed below.

For one test, the target named is GDP-loaded KRAS G12D (Homo sapiens (Human), UniProt P01116, G12D). Kind of test: KRAS G12D (GDP) biochemical assay (TR-FRET probe displacement). In kind it is binding. As to conditions: 2 hours. The essentials: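 Compound pre-incubated 30 min with GDP-loaded KRAS G12D in 50 mM Hepes pH 7.4, 150 mM NaCl, 5 mM MgCl2, 0.005% Tween-20, then Eu-streptavidin and TR-FRET probe added. After 2 h at room temperature, TR-FRET ratio read; IC50 is 50% ratio decrease, sigmoidal fit.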
Sequence of GDP-loaded KRAS G12D (P01116-2 other isoform, or with tags, fused parts or gaps G12D): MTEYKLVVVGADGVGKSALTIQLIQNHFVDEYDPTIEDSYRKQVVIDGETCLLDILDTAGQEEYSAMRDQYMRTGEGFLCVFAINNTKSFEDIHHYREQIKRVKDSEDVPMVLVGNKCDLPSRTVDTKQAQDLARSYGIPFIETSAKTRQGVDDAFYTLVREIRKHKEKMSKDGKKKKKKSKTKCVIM

The subject of the next test is GP2D (KRAS G12D) cells. Kind of test: 2D cell viability assay (CellTiter-Glo). In kind it is cell-based. As to conditions: GP2d, 96 h, 4 days. The essentials: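 GP2D (KRAS G12D) cells, 1000/well in RPMI + 10% FBS, were plated onto compound (1:3 DMSO series) and grown 4 days at 37 °C, 5% CO2 in 2D. CellTiter-Glo luminescence was read; EC50 is the concentration giving 50% signal decrease, from sigmoidal fit.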

Take `C#Cc1c(F)ccc2cccc(-c3nc4c5c(nc(OC[C@@]67CCCN6[C@H](COc6cc(C(F)(F)F)ncn6)CC7)nc5c3F)N3C[C@H]5CC[C@H](N5)[C@H]3CCC4)c12` [Example 154, (6aR,7S,10R)-2-(8-ethynyl-7-fluoronanhthalen-1-yl)-1-fluoro-13-(((3S,7aS)-3-(((6-(trifluoromethyl)pyrimidin-4-yl)oxy)methyl)tetrahydro-1H-pyrrolizin-7a(5H)-yl)methoxy)-5,6,6a,7,8,9,10,11-octahydro-4H-3,11a,12,14,15-pentaaza-7,10-methanocyclohepta[4,5]cycloocta[1,2,3-de]naphthalene]: the IC50 at GDP-loaded KRAS G12D was determined as 0.1 nM. Further, in the test on GP2D (KRAS G12D) cells, it took 1 nM to reach a half-maximal effect (EC50).

As to `C#Cc1c(F)ccc2cccc(-c3nc4c5c(nc(OC[C@@]67CCCN6C[C@H](F)C7)nc5c3F)N3C[C@H]5CC[C@H](N5)[C@@H]3[C@@H](C)CC4)c12` [Example 156, (6S,6aS,7S,10R)-2-(8-ethynyl-7-fluoronaphthalen-1-yl)-1-fluoro-13-(((2R,7aS)-2-fluorotetrahydro-1H-pyrrolizin-7a(5H)-yl)methoxy)-6-methyl-5,6,6a,7,8,9,10,11-octahydro-4H-3,11a,12,14,15-pentaaza-7,10-methanocyclohepta[4,5]cycloocta[1,2,3-de]naphthalene], the IC50 on GDP-loaded KRAS G12D was 100 nM. In the test with GP2D (KRAS G12D) cells, the EC50 stood at 100 nM.

On GDP-loaded KRAS G12D, `C#Cc1c(F)ccc2cccc(-c3nc4c5c(nc(OCC67CCCN6CCC7)nc5c3F)N3C[C@H]5CC[C@H](N5)[C@@H]3[C@@H](C)C4)c12` [Example 157, (5S,5aS,6S,9R)-2-(8-ethynyl-7-fluoronaphthalen-1-yl)-1-fluoro-5-methyl-12-((tetrahydro-1H-pyrrolizin-7a(5H)-yl)methoxy)-4,5,5a,6,7,8,9,10-octahydro-3,10a,11,13,14-pentaaza-6,9-methanonaphtho[1,8-ab]heptalene] had an IC50 of 6.4 nM. The EC50 with GP2D (KRAS G12D) cells was found to be 29.4 nM.

In the case of `C#Cc1c(F)ccc2cccc(-c3nc4c5c(nc(OCC67CC8(CC8)CN6CC6(CC6)C7)nc5c3F)N3C[C@H]5CC[C@H](N5)[C@@H]3[C@@H](C)C4)c12` [Example 158], the IC50 at GDP-loaded KRAS G12D is 12.5 nM. This compound also registered an EC50 in the test with GP2D (KRAS G12D) cells of 100 nM.

Compound `C#Cc1c(F)ccc2cccc(-c3nc4c5c(nc(OC[C@@]67CCCN6C[C@H](F)C7)nc5c3F)N3C[C@H]5CC[C@H](N5)[C@@H]3[C@H](C)CC4)c12` [Example 159, (6R,6aS,7S,10R)-2-(8-ethynyl-7-fluoronaphthalen-1-yl)-1-fluoro-13-(((2R,7aS)-2-fluorotetrahydro-1H-pyrrolizin-7a(5H)-yl)methoxy)-6-methyl-5,6,6a,7,8,9,10,11-octahydro-4H-3,11a,12,14,15-pentaaza-7,10-methanocyclohepta[4,5]cycloocta[1,2,3-de]naphthalene] displayed an IC50 at GDP-loaded KRAS G12D of 100 nM. In the test with GP2D (KRAS G12D) cells, this compound came in with an EC50 of 100 nM.

In the case of `C#Cc1c(F)ccc2cc(O)cc(-c3nc4c5c(nc(OCC6(CN7CC[C@H](OC(F)(F)F)C7)CC6)nc5c3F)N3C[C@H]5CC[C@H](N5)[C@H]3CCC4)c12` [Example 162], the IC50 on GDP-loaded KRAS G12D came out at 0.4 nM. For the same compound, the EC50 with GP2D (KRAS G12D) cells came out at 0.5 nM.

`C#Cc1c(F)ccc2cc(O)cc(-c3nc4c5c(nc(OC[C@@]67CCCN6[C@H](COCC(F)(F)F)CC7)nc5c3F)N3C[C@H]5CC[C@H](N5)[C@H]3CC4)c12` [Example 163, 5-ethynyl-6-fluoro-4-((5aR,6S,9R)-1-fluoro-12-(((3S,7aS)-3-((2,2,2-trifluoroethoxy)methyl)tetrahydro-1H-pyrrolizin-7a(5H)-yl)methoxy)-4,5,5a,6,7,8,9,10-octahydro-3,10a,11,13,14-pentaaza-6,9-methanonaphtho[1,8-ab]heptalen-2-yl)naphthalen-2-ol] came in with an IC50 at GDP-loaded KRAS G12D of 0.1 nM. A half-maximal effect in the test with GP2D (KRAS G12D) cells (EC50) was put at 5.1 nM.

At GDP-loaded KRAS G12D, `C#Cc1c(F)ccc2cccc(-c3nc4c5c(nc(OC[C@@]67CCCN6[C@H](COCC(F)(F)F)CC7)nc5c3F)N3C[C@H]5CC[C@H](N5)[C@H]3CC4)c12` [Example 164, (5aR,6S,9R)-2-(8-ethynyl-7-fluoronaphthalen-1-yl)-1-fluoro-12-(((3S,7aS)-3-((2,2,2-trifluoroethoxy)methyl)tetrahydro-1H-pyrrolizin-7a(5H)-yl)methoxy)-4,5,5a,6,7,8,9,10-octahydro-3,10a,11,13,14-pentaaza-6,9-methanonaphtho[1,8-ab]heptalene] had an IC50 of 0.3 nM. In the test with GP2D (KRAS G12D) cells, this compound displayed an EC50 of 38 nM.

In the case of `C#Cc1c(F)ccc2cccc(-c3nc4c5c(nc(OC[C@@]67CCCN6C[C@H](F)C7)nc5c3F)N3C[C@H]5CC[C@H](N5)[C@H]3CC[C@@H]4C)c12` [Example 174, (4S,6aR,7S,10R)-2-(8-ethynyl-7-fluoronaphthalen-1-yl)-1-fluoro-13-(((2R,7aS)-2-fluorotetrahydro-1H-pyrrolizin-7a(5H)-yl)methoxy)-4-methyl-5,6,6a,7,8,9,10,11-octahydro-4H-3,11a,12,14,15-pentaaza-7,10-methanocyclohepta[4,5]cycloocta[1,2,3-de]naphthalene], the IC50 on GDP-loaded KRAS G12D is 5.7 nM. The compound further yielded an EC50 with GP2D (KRAS G12D) cells of 100 nM.

Compound `C#Cc1c(F)ccc2cccc(-c3nc4c5c(nc(OCC6(CN7CCC8(CC7)CC8)CC6)nc5c3F)N3C[C@H]5CC[C@H](N5)[C@H]3CCC4)c12` [Example 178, (6aR,7S,10R)-13-((1-((6-azaspiro[2.5]octan-6-yl)methyl)cyclopropyl)methoxy)-2-(8-ethynyl-7-fluoronaphthalen-1-yl)-1-fluoro-5,6,6a,7,8,9,10,11-octahydro-4H-3,11a,12,14,15-pentaaza-7,10-methanocyclohepta[4,5]cycloocta[1,2,3-de]naphthalene] returned an IC50 on GDP-loaded KRAS G12D of 0.7 nM. This compound showed an EC50 in the test with GP2D (KRAS G12D) cells of 37.4 nM.

Regarding `C#Cc1c(F)ccc2cc(O)cc(-c3nc4c5c(nc(OCC6(CN7CCC(Oc8ccnc(C(F)(F)F)n8)CC7)CC6)nc5c3F)N3C[C@H]5CC[C@H](N5)[C@H]3CC4)c12` [Example 180, 5-ethynyl-6-fluoro-4-((5aR,6S,9R)-1-fluoro-12-((1-((4-((2-(trifluoromethyl)pyrimidin-4-yl)oxy)piperidin-1-yl)methyl)cyclopropyl)methoxy)-4,5,5a,6,7,8,9,10-octahydro-3,10a,11,13,14-pentaaza-6,9-methanonaphtho[1,8-ab]heptalen-2-yl)naphthalen-2-ol], at GDP-loaded KRAS G12D, the IC50 was found to be 0.8 nM. Besides, it took 5.1 nM to reach a half-maximal effect with GP2D (KRAS G12D) cells (EC50).

On GDP-loaded KRAS G12D, `C#Cc1c(F)ccc2cccc(-c3nc4c5c(nc(OC[C@@]67CCCN6C[C@H](F)C7)nc5c3F)N3C[C@H]5CC[C@H](N5)[C@H]3C[C@H]4CC)c12` [Example 182, (4R,5aR,6S,9R)-4-ethyl-2-(8-ethynyl-7-fluoronaphthalen-1-yl)-1-fluoro-12-(((2R,7aS)-2-fluorotetrahydro-1H-pyrrolizin-7a(5H)-yl)methoxy)-4,5,5a,6,7,8,9,10-octahydro-3,10a,11,13,14-pentaaza-6,9-methanonaphtho[1,8-ab]heptalene] showed an IC50 of 0.4 nM. In the test with GP2D (KRAS G12D) cells, the EC50 turned out to be 87 nM.

Compound `C#Cc1c(F)ccc2cccc(-c3nc4c5c(nc(OC[C@@]67CCCN6C[C@H](F)C7)nc5c3F)N3C[C@H]5CC[C@H](N5)[C@H]3[C@H](C)C4)c12` [Example 184, (5R,5aR,6S,9R)-2-(8-ethynyl-7-fluoronaphthalen-1-yl)-1-fluoro-12-(((2R,7aS)-2-fluorotetrahydro-1H-pyrrolizin-7a(5H)-yl)methoxy)-5-methyl-4,5,5a,6,7,8,9,10-octahydro-3,10a,11,13,14-pentaaza-6,9-methanonaphtho[1,8-ab]heptalene] yielded an IC50 at GDP-loaded KRAS G12D of 0.7 nM. In addition, the EC50 in the test with GP2D (KRAS G12D) cells turned out to be 19 nM.

For `C#Cc1c(F)ccc2cccc(-c3nc4c5c(nc(OC[C@@]67CCCN6C[C@H](F)C7)nc5c3F)N3C[C@H]5CC[C@H](N5)[C@H]3C[C@H]4O)c12` [Example 186, (4R,5aR,6S,9R)-2-(8-ethynyl-7-fluoronaphthalen-1-yl)-1-fluoro-12-(((2R,7aS)-2-fluorotetrahydro-1H-pyrrolizin-7a(5H)-yl)methoxy)-4,5,5a,6,7,8,9,10-octahydro-3,10a,11,13,14-pentaaza-6,9-methanonaphtho[1,8-ab]heptalen-4-ol], at GDP-loaded KRAS G12D, the IC50 turned out to be 0.2 nM. The EC50 with GP2D (KRAS G12D) cells was determined as 13 nM.

The compound `C#Cc1c(F)ccc2cccc(-c3nc4c5c(nc(OC[C@@]67CCCN6[C@H](COC(C(F)(F)F)(C(F)(F)F)C(F)(F)F)CC7)nc5c3F)N3C[C@H]5CC[C@H](N5)[C@H]3CC4)c12` [Example 187, (5aR,6S,9R)-2-(8-ethynyl-7-fluoronaphthalen-1-yl)-1-fluoro-12-(((3S,7aS)-3-(((1,1,1,3,3,3-hexafluoro-2-(trifluoromethyl)propan-2-yl)oxy)methyl)tetrahydro-1H-pyrrolizin-7a(5H)-yl)methoxy)-4,5,5a,6,7,8,9,10-octahydro-3,10a,11,13,14-pentaaza-6,9-methanonaphtho[1,8-ab]heptalene] registered an IC50 at GDP-loaded KRAS G12D of 0.9 nM. Besides, the midpoint of the response in the test on GP2D (KRAS G12D) cells, the EC50, lay at 62 nM.

At GDP-loaded KRAS G12D, `C#Cc1c(F)ccc2cccc(-c3nc4c5c(nc(OC[C@@]67CCCN6C[C@H](F)C7)nc5c3F)N3C[C@H]5CC[C@H](N5)[C@H]3CCCC4)c12` [Example 188, (7aR,8S,11R)-2-(8-ethynyl-7-fluoronaphthalen-1-yl)-1-fluoro-14-(((2R,7aS)-2-fluorotetrahydro-1H-pyrrolizin-7a(5H)-yl)methoxy)-4,5,6,7,7a,8,9,10,11,12-decahydro-3,12a,13,15,16-pentaaza-8,11-methanocyclohepta[4,5]cyclonona[1,2,3-de]naphthalene] showed an IC50 of 0.2 nM. Further, a half-maximal response in the test with GP2D (KRAS G12D) cells (EC50) required 100 nM.
